Experiments:
[1] = test system: Colony Forming Unit-Megakaryocyte (CFU-Mk) cultures; experiment: Colony forming unit assay, CFU-Mk (Example 6); format: cell-based, human; conditions: for effect of receptor antagonist on substance P-enhanced platelet colony formation: in the presence of substance P
Source text: (§1) As stem cells differentiate in response to growth factors, they form a colony of cells with distinct morphologies that can be visualized using a microscope. This study examined the formation of three different progenitor cell populations, erythrocytes, platelets and granulocytes/macrophages.
(§2) Bone marrow aspirates were obtained from three healthy donors between 18 and 35 years of age following appropriate guidelines and protocols. Bone marrow mononuclear cells were isolated using a Ficoll-Hypaque density gradient, separating red blood cells from the others. Cells from each donor were processed independently and used for setting up individual experiments to assess the effects, if any, of donor variability.
(§3) Cells (1×10^5) were plated in duplicate onto 35 mm tissue culture plates for each condition tested and set up as described in Rameshwar et al. 1993, Blood. 81:2, 391-398. Erythroid and granulocyte/macrophage cultures were plated using methylcellulose and megakaryocyte cultures (platelet precursors) used a collagen-based support (StemCell Technologies, Vancouver, Canada, catalogue #04973). […] CP 99,994 (Pfizer) was used as a neurokinin-1 receptor antagonist and SR 48968 (Sanofi) was used as a neurokinin-2 receptor antagonist.
Cultures were set up with limited cytokines and growth factors which would promote differentiation of one progenitor per plate.
Each compound was dissolved in endotoxin-free water to a final concentration of 0.1 mM. After reconstitution, the solutions were aliquoted into siliconized microcentrifuge tubes and exposed to nitrogen gas, eliminating oxygen in the head space of the enclosure. All aliquots were stored at −20° C. until use and used within one month of reconstitution. See, Rameshwar, et al. 1997, J. Immunol.
Cultures were incubated at 37° C. with 5% CO2 for approximately 14 days, after which colonies were manually enumerated using a microscope. […]

[2] = test system: human bone marrow-derived hematopoietic cell populations; experiment: CFC differentiation and ATP proliferation assays, overall statements on the seven cell populations (Examples 4 and 5); format: cell-based
Procedure: The compound was dissolved in 1 ml of Iscove's Modified Dulbecco's Medium (IMDM) and a serial dose response prepared in single log doses so that the final dose in culture ranged from 1 nM to 1×10^−16 M. All working dilutions were performed in IMDM.
Starting with human bone marrow aspirate, the mononuclear cell (MNC) fraction was separated from the whole bone marrow using Ficoll-Paque density gradient centrifugation. […] The cell concentration was adjusted so that the final cell concentration in culture was 10,000 cells/well.
Human bone marrow MNC was dissolved in IMDM and cultured at a concentration of 10,000 cell/well in a CAMEO™-96 Master Mix (HemoGenix, Inc., Colorado Springs, Colo.). Master Mix is a HemoGenix proprietary cell culture media comprised of a serum mix (4 parts), a methyl cellulose mix (4 parts) and a growth factor mix (1 part) with the bone marrow target cells (1 part). See, Rich and Hall 2005, Toxicol. Sci. 87(2): 427-441.
Different combinations and concentrations of growth factors are used to induce differentiation of cells into specific cell types. […]
Prior to processing all 96-well plates, the total colony counts/well were manually enumerated by microscopy. The mean, standard deviation and percent coefficient of variation was calculated for all groups, transposed and plotted. The intracellular ATP (iATP) concentration was measured after manual enumeration. The output of the luminometer is non-standardized Relative Luminescence Units (RLU). […] This allowed the RLU values to be automatically calculated into standardized ATP (μM) units. For both the RLU and ATP values derived from each well, the luminometer software calculated the mean, standard deviation and percent coefficient of variation. […]

[3] = test system: Colony Forming Unit—Erythroid (CFU-E) cultures; experiment: Colony forming unit assay, CFU-E (Example 6); format: cell-based; conditions: human bone marrow cells, about 14 days, FIG. 2
Source text: as §1, §2
as §3, with “antagonist. […]” for “antagonist.”

[4] = test system: Blast Forming Unit—Erythroid (BFU-E) cultures; experiment: Colony forming unit assay, BFU-E (Example 6); format: cell-based; conditions: human bone marrow cells, about 14 days, FIG. 1; control = zero level
Source text: as §1, §2
as §3, with “antagonist. […]” for “antagonist.”

## CC(=O)NC1(c2ccccc2)CCN(CC[C@H](CN(C)C(=O)c2ccccc2)c2ccc(Cl)c(Cl)c2)CC1 [SR48968]
[1]
  effect of receptor antagonist on substance P-enhanced platelet colony formation: showed no effect on substance P activity

## COc1ccccc1CN[C@H]1CCCN[C@H]1c1ccccc1 [CP-99,994]
[1]
  effect of receptor antagonist on substance P-enhanced platelet colony formation: blocks the stimulatory activity of substance P

## CC(C)C[C@H](NC(=O)CN(C)C(=O)[C@H](Cc1ccccc1)NC(=O)[C@H](Cc1ccccc1)NC(=O)[C@H](CCC(N)=O)NC(=O)[C@H](CCC(N)=O)NC(=O)[C@@H]1CCCN1C(=O)[C@H](CCCCN)NC(=O)[C@@H]1CCCN1C(=O)[C@@H](N)CCCNC(=N)N)C(=O)N[C@@H](CCS(C)(=O)=O)C(N)=O [Homspera®]
[2]; Example 4, levels tested (10^−16 M to 1 nM)
  toxicity to T-CFC and B-CFC: do not demonstrate toxicity at the levels tested
[2]; Example 4, most of populations, 14 days, 10^−16 M to 1 nM
  cytotoxicity: apparent absence of distinct cytotoxicity
[2]; Example 5, three donors, seven cell populations, highest doses (1 nM)
  toxicity in CFC assay: no apparent toxicity at the highest doses

## RPKPQQFFGLM-NH2 [substance P]
[1]; approximately 2-fold stimulation
  effective concentration for platelet precursors: 10^−8 M
[3]
  CFU-E colony formation enhancement from control values: about 70%
[4]
  BFU-E colony increase from control values: ~60%

From patent US20090156504A1, “METHODS OF TREATING BLOOD CELL DEPLETION” (ImmuneRegen Biosciences, Inc., priority 2007, published 2009)
